These results are taken from patent US9873709B2 (priority 2013, dated 2018).

SMILES strings stand for the structures.

Assay [1] concerns JAK1-dependent STAT6 phosphorylation downstream of IL-13 stimulation in TF-1 human erythroleukemia cells. Briefly: cells. The settings on record: TF-1, read-out: IL-13-pSTAT6 IC50.
Assay [2] relates to JAK1-dependent STAT6 phosphorylation downstream of IL-13 stimulation in BEAS-2B human bronchial epithelial cells. Briefly: cells. The settings on record: read-out: IL13-pSTAT6 BEASB2B IC50.
Procedure: Inhibitor potency (EC50) was determined in cell-based assays designed to measure JAK1 dependent STAT phosphorylation.
Prior to use in the assays, TF-1 cells were starved of GM-CSF overnight in OptiMEM medium (Life Technologies, Grand Island, N.Y.) supplemented with 0.5% charcoal/dextran stripped fetal bovine serum (FBS), 0.1 mM non-essential amino acids (NEAA), and 1 mM sodium pyruvate. The assays were run in 384-well plates in serum-free OptiMEM medium using 300,000 cells per well. In a second assay approach, BEAS-2B human bronchial epithelial cells obtained from ATCC were plated at 100,000 cells per well of a 96-well plate one day prior to the experiment. The BEAS-2B assay was run in complete growth medium (bronchial epithelial basal medium plus bulletkit; Lonza; Basel, Switzerland).
Test compounds were serially diluted 1:2 in DMSO and then diluted 1:50 in medium just before use. Diluted compounds were added to the cells, for a final DMSO concentration of 0.2%, and incubated for 30 min (for the TF-1 assay) or 1 hr (for the BEAS-2B assay) at 37° C. Then, cells were stimulated with human recombinant cytokine at their respective EC90 concentrations, as previously determined for each individual lot. […] The resultant samples were frozen in the plates at −80° C. Compound mediated inhibition of STAT6 phosphorylation was measured in the cell lysates using MesoScale Discovery (MSD) technology (Gaithersburg, Md.).

For `CN1CCC(N(C)C(=O)c2ccc(Nc3nc4c(N5CCC(O)(c6ccc(Cl)cc6)CC5)cccn4n3)cc2)CC1` [Example 1-17, 4-[[8-[4-(4-chlorophenyl)-4-hydroxy-1-piperidyl]-[1,2,4]triazolo[1,5-a]pyridin-2-yl]amino]-N-methyl-N-(1-methyl-4-piperidyl)benzamide], the IC50 was 0.0339 µM in assay [1] and 0.153 µM in assay [2].

`CNC1CN(C(=O)c2ccc(Nc3nc4c(N5CCC(O)(c6ccc(Cl)cc6)CC5)cccn4n3)cc2)C1` [Example 1-47, [4-[[8-[4-(4-chlorophenyl)-4-hydroxy-1-piperidyl]-[1,2,4]triazolo[1,5-a]pyridin-2-yl]amino]phenyl]-[3-(methylamino)azetidin-1-yl]methanone]: the IC50 was found to be 0.0103 µM in assay [1] and 0.0581 µM in assay [2].

With `O=C(NCCCN1CCOCC1)c1ccc(Nc2nc3c(N4CCC(O)(c5ccc(Cl)cc5)CC4)cccn3n2)cc1` [Example 1-98, 4-[[8-[4-(4-chlorophenyl)-4-hydroxy-1-piperidyl]-[1,2,4]triazolo[1,5-a]pyridin-2-yl]amino]-N-(3-morpholinopropyl) benzamide], the figures for the half-inhibitory concentration (IC50) in assay [1] and in assay [2] were 0.0119 µM and 0.0424 µM, respectively. Taken in the same sequence, the figures for `CN1CCCC1CCNC(=O)c1ccc(Nc2nc3c(N4CCC(O)(c5ccc(Cl)cc5)CC4)cccn3n2)cc1` (centres unmarked) [Example 1-102, 4-[[8-[4-(4-chlorophenyl)-4-hydroxy-1-piperidyl]-[1,2,4]triazolo[1,5-a]pyridin-2-yl]amino]-N-[2-(1-methylpyrrolidin-2-yl)ethyl]benzamide] were 0.045 µM and 0.0547 µM. As for `CC1CN(C2CCN(C(=O)c3ccc(Nc4nc5c(N6CCC(O)(c7ccc(Cl)cc7)CC6)cccn5n4)cc3)CC2)CC(C)O1` (centres unmarked) [Example 1-118, [4-[[8-[4-(4-chlorophenyl)-4-hydroxy-1-piperidyl]-[1,2,4]triazolo[1,5-a]pyridin-2-yl]amino]phenyl]-[4-(2,6-dimethylmorpholin-4-yl)-1-piperidyl]methanone], the IC50 in assay [2] was 0.112 µM.

`O=C(c1ccc(Nc2nc3c(N4CCC(O)(c5ccc(Cl)cc5)CC4)cccn3n2)cc1)N1CCC(N2CCOCC2)C1` (centres unmarked) [Example 1-127, [4-[[8-[4-(4-chlorophenyl)-4-hydroxy-1-piperidyl]-[1,2,4]triazolo[1,5-a]pyridin-2-yl]amino]phenyl]-(3-morpholinopyrrolidin-1-yl)methanone]: the IC50 in assay [1] was found to be 0.0147 µM; in assay [2], 0.0245 µM. For `CN(C)c1cc(CC2CCN(C(=O)c3ccc(Nc4nc5c(N6CCC(O)(c7ccc(Cl)cc7)CC6)cccn5n4)cc3)C2)ncn1` (centres unmarked) [Example 1-151, [4-[[8-[4-(4-chlorophenyl)-4-hydroxy-1-piperidyl]-[1,2,4]triazolo[1,5-a]pyridin-2-yl]amino]phenyl]-[3-[[6-(dimethylamino)pyrimidin-4-yl]methyl]pyrrolidin-1-yl]methanone], the values for the IC50 in assay [1] and in assay [2] were 0.107 µM and 0.167 µM, respectively.

On to `O=C(NCCc1ccncc1)c1ccc(Nc2nc3c(N4CCC(O)(c5ccc(Cl)cc5)CC4)cccn3n2)cc1` [Example 1-161, 4-[[8-[4-(4-chlorophenyl)-4-hydroxy-1-piperidyl]-[1,2,4]triazolo[1,5-a]pyridin-2-yl]amino]-N-[2-(4-pyridyl)ethyl]benzamide], for which the IC50 in assay [1] came to 0.0234 µM; in assay [2] it was 0.0485 µM. As to `CN1CCC(N(C)C(=O)c2ccc(Nc3nc4c(N5CCC(c6ccc(Cl)cc6)(C(O)C(F)(F)F)CC5)cccn4n3)cc2)CC1` (centres unmarked) [Example 1-253, 4-[[8-[4-(4-chlorophenyl)-4-(2,2,2-trifluoro-1-hydroxy-ethyl)-1-piperidyl]-[1,2,4]triazolo[1,5-a]pyridin-2-yl]amino]-N-methyl-N-(1-methyl-4-piperidyl)benzamide], in assay [2], the IC50 was 0.418 µM. For `CN1CCC(N(C)C(=O)c2ccc(Nc3nc4c(N5CCC(CCO)(c6ccc(Cl)cc6)CC5)cccn4n3)cc2)CC1` [Example 1-255, 4-[[8-[4-(4-chlorophenyl)-4-(2-hydroxyethyl)-1-piperidyl]-[1,2,4]triazolo[1,5-a]pyridin-2-yl]amino]-N-methyl-N-(1-methyl-4-piperidyl)benzamide; formic acid], the half-inhibitory concentration (IC50) is 0.0271 µM in assay [1] and 0.159 µM in assay [2]. With `CN1CCC(N(C)C(=O)c2ccc(Nc3nc4c(N5CCC(c6ccc(Cl)cc6)(C(O)CO)CC5)cccn4n3)cc2)CC1` (centres unmarked) [Example 1-270, 4-[[8-[4-(4-chlorophenyl)-4-(1,2-dihydroxyethyl)-1-piperidyl]-[1,2,4]triazolo[1,5-a]pyridin-2-yl]amino]-N-methyl-N-(1-methyl-4-piperidyl)benzamide], in assay [2], the IC50 was found to be 0.114 µM. Still for that read-out and setting: the result for `O=C(Cn1cc(Nc2nc3c(N4CCC(CO)(c5ccc(Cl)cc5)CC4)cccn3n2)cn1)N1CCC(CN2CCOCC2)CC1` [Example 1-289, 2-[4-[[8-[4-(4-chlorophenyl)-4-(hydroxymethyl)-1-piperidyl]-[1,2,4]triazolo[1,5-a]pyridin-2-yl]amino]pyrazol-1-yl]-1-[4-(morpholinomethyl)-1-piperidyl]ethanone] reads 0.0081 µM. As to `CNC1CCN(C(=O)Cn2cc(Nc3nc4c(N5CCC(CO)(c6ccc(Cl)cc6)CC5)cccn4n3)cn2)CC1` [Example 1-291, 2-[4-[[8-[4-(4-chlorophenyl)-4-(hydroxymethyl)-1-piperidyl]-[1,2,4]triazolo[1,5-a]pyridin-2-yl]amino]pyrazol-1-yl]-1-[4-(methylamino)-1-piperidyl]ethanone], the IC50 in assay [2] was determined as 0.525 µM. Still for that read-out and setting: for `O=C(NCCCN1CCOCC1)c1ccc(Nc2nc3c(C4C=CN(C(=O)CCC(F)(F)F)CC4)cccn3n2)cc1` (centres unmarked) [Example 1-295, N-(3-morpholinopropyl)-4-[[8-[1-(4,4,4-trifluorobutanoyl)-3,4-dihydro-2H-pyridin-4-yl]-[1,2,4]triazolo[1,5-a]pyridin-2-yl]amino]benzamide] the value was 0.729 µM; for `CN(CCC#N)C1CCN(C(=O)Cn2cc(Nc3nc4c(N5CCC(CO)(c6ccc(Cl)cc6)CC5)cccn4n3)cn2)CC1` [Example 1-296, 3-[[1-[2-[4-[[8-[4-(4-chlorophenyl)-4-(hydroxymethyl)-1-piperidyl]-[1,2,4]triazolo[1,5-a]pyridin-2-yl]amino]pyrazol-1-yl]acetyl]-4-piperidyl]-methyl-amino]propanenitrile], 0.0126 µM. For the compound `CCOC(=O)N1CC=C(c2cccn3nc(Nc4ccc(C(=O)N5CCC(N6CCOCC6)CC5)cc4)nc23)CC1` [Example 2-18, ethyl 4-[2-[4-(4-morpholinopiperidine-1-carbonyl)anilino]-[1,2,4]triazolo[1,5-a]pyridin-8-yl]-3,6-dihydro-2H-pyridine-1-carboxylate], in assay [2], the IC50 came to 0.134 µM.

As for `CCOC(=O)N1CC=C(c2cccn3nc(Nc4ccc(C(=O)N5CCC(N6CC(C)OC(C)C6)CC5)cc4)nc23)CC1` (centres unmarked) [Example 2-63, ethyl 4-[2-[4-[4-(2,6-dimethylmorpholin-4-yl)piperidine-1-carbonyl]anilino]-[1,2,4]triazolo[1,5-a]pyridin-8-yl]-3,6-dihydro-2H-pyridine-1-carboxylate], the IC50 in assay [2] amounted to 0.151 µM. On to `CCOC(=O)N1CC=C(c2cccn3nc(Nc4ccc(C(=O)N5CCC(N6CCOCC6)C5)cc4)nc23)CC1` (centres unmarked) [Example 2-66, ethyl 4-[2-[4-(3-morpholinopyrrolidine-1-carbonyl)anilino]-[1,2,4]triazolo[1,5-a]pyridin-8-yl]-3,6-dihydro-2H-pyridine-1-carboxylate], for which the IC50 in assay [2] was determined as 0.224 µM.

One may read the IC50 as the concentration at which inhibition is half-maximal.
